From patent US9376425B2, “Heterocyclic compounds as MDM2 inhibitors for the treatment of cancer” (AMGEN INC., priority 2011, dated 2016)

Molecular target: T1, human MDM2 (GST-hMDM2 aa 1-188), interaction with biotinylated-p53 (aa 1-83) (Homo sapiens, UniProt Q00987)
T1 construct: Amino acid residues 1-188 of human MDM2 were expressed; made in house; host or cells: Escherichia coli
Assay: Homogenous Time-Resolved Fluorescence Assay (HTRF1 assay), inhibition of HDM2-p53 interaction
Assay type: binding
Settings: 2.5 nM GST-hMDM2, 5 nM biotinylated-p53, 200 mM KF
How it was run: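 GST-hMDM2 preincubated 20 min at room temperature with serially diluted compound, then biotinylated p53 (aa 1-83, AviTag-TrxA-6xHis fusion) added for 60 min. SA-XLent/anti-GST cryptate detection equilibrated >4 h; final DMSO 2%. Time-resolved fluorescence read; percent inhibition relative to nutlin-3.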

T1 sequence (Q00987 1-188): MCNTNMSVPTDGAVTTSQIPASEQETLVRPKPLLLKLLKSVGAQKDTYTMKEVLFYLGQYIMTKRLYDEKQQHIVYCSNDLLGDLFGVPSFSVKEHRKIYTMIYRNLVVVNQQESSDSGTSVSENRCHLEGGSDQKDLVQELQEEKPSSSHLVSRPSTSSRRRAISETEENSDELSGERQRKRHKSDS

| Structure (SMILES) | IC50 [nM] |
| --- | --- |
| C[C@H](c1ccccc1)N1C(=O)[C@@H](CC(=O)O)O[C@H](c2cccc(Cl)c2)[C@H]1c1ccc(Cl)cc1 [Example 24, 2-((2R,5R,6R)-6-(3-Chlorophenyl)-5-(4-chlorophenyl)-3-oxo-4-((R)-1-phenylethyl)morpholin-2-yl)acetic acid] | 1000 |
| C[C@H](c1ccccc1)N1C(=O)[C@H](CC(=O)O)O[C@H](c2cccc(Cl)c2)[C@H]1c1ccc(Cl)cc1 [Example 25, 2-((2S,5R,6R)-6-(3-Chlorophenyl)-5-(4-chlorophenyl)-3-oxo-4-((R)-1-phenylethyl)morpholin-2-yl)acetic acid] | 600 |
| C[C@@H](c1ccccc1)N1C(=O)[C@@H](CC(=O)O)O[C@H](c2cccc(Cl)c2)[C@H]1c1ccc(Cl)cc1 [Example 26, 2-((2R,5R,6R)-6-(3-Chlorophenyl)-5-(4-chlorophenyl)-3-oxo-4-((S)-1-phenylethyl)morpholin-2-yl)acetic acid] | 1500 |
| C[C@@H](c1ccccc1)N1C(=O)[C@H](CC(=O)O)O[C@H](c2cccc(Cl)c2)[C@H]1c1ccc(Cl)cc1 [Example 27, 2-((2S,5R,6R)-6-(3-Chlorophenyl)-5-(4-chlorophenyl)-3-oxo-4-((S)-1-phenylethyl)morpholin-2-yl)acetic acid] | 600 |
| O=C(O)C[C@@H]1O[C@H](c2cccc(Cl)c2)[C@@H](c2ccc(Cl)cc2F)N(CC2CC2)C1=O [Example 54, 2-((2S,5R,6R)-5-(4-Chloro-2-fluorophenyl)-6-(3-chlorophenyl)-4-(cyclopropylmethyl)-3-oxomorpholin-2-yl)acetic acid] | 600 |
| O=C(O)C[C@@H]1O[C@H](c2cccc(Cl)c2)[C@@H](c2ccccc2)N(CC2CC2)C1=O [Example 55, 2-((2S,5R,6R)-6-(3-Chlorophenyl)-4-(cyclopropylmethyl)-3-oxo-5-phenylmorpholin-2-yl)acetic acid] | 3300 |
| O=C(O)C[C@@H]1O[C@H](c2cccc(Cl)c2)[C@@H](c2ccc(F)cc2)N(CC2CC2)C1=O [Example 56, 2-((2S,5R,6R)-6-(3-Chlorophenyl)-4-(cyclopropylmethyl)-5-(4-fluorophenyl)-3-oxomorpholin-2-yl)acetic acid] | 700 |
| O=C(O)C[C@@H]1O[C@H](c2cccc(Cl)c2)[C@@H](c2ccc(C(F)(F)F)cc2)N(CC2CC2)C1=O [Example 57, 2-((2S,5R,6R)-6-(3-Chlorophenyl)-4-(cyclopropylmethyl)-3-oxo-5-(4-(trifluoromethyl)phenyl)morpholin-2-yl)acetic acid] | 800 |
| CCc1ccc([C@@H]2[C@@H](c3cccc(Cl)c3)O[C@@H](CC(=O)O)C(=O)N2CC2CC2)cc1 [Example 58, 2-((2S,5R,6R)-6-(3-Chlorophenyl)-4-(cyclopropylmethyl)-5-(4-ethylphenyl)-3-oxomorpholin-2-yl)acetic acid] | 900 |
| O=C(O)C[C@@H]1O[C@H](c2cccc(Cl)c2)[C@@H](c2ccc(OC(F)(F)F)cc2)N(CC2CC2)C1=O [Example 59, 2-((2S,5R,6R)-6-(3-Chlorophenyl)-4-(cyclopropylmethyl)-3-oxo-5-(4-(trifluoromethoxy)phenyl)morpholin-2-yl)acetic acid] | 700 |
| Cc1ccc([C@@H]2[C@@H](c3cccc(Cl)c3)O[C@@H](CC(=O)O)C(=O)N2CC2CC2)cc1 [Example 60, 2-((2S,5R,6R)-6-(3-Chlorophenyl)-4-(cyclopropylmethyl)-3-oxo-5-(p-tolyl)morpholin-2-yl)acetic acid] | 700 |
| Cc1ccc([C@@H]2[C@@H](c3cccc(Cl)c3)O[C@H](CC(=O)O)C(=O)N2CC2CC2)cc1 [Example 61, 2-((2R,5R,6R)-6-(3-Chlorophenyl)-4-(cyclopropylmethyl)-3-oxo-5-(p-tolyl)morpholin-2-yl)acetic acid] | 600 |
| O=C(O)C[C@H]1O[C@H](c2cccc(Cl)c2)[C@@H](c2ccccc2)N(CC2CC2)C1=O [Example 63, 2-((2R,5R,6R)-6-(3-Chlorophenyl)-4-(cyclopropylmethyl)-3-oxo-5-phenylmorpholin-2-yl)acetic acid] | 9100 |
| O=C(O)C[C@H]1O[C@H](c2cccc(Cl)c2)[C@@H](c2ccc(F)cc2)N(CC2CC2)C1=O [Example 64, 2-((2R,5R,6R)-6-(3-Chlorophenyl)-4-(cyclopropylmethyl)-5-(4-fluorophenyl)-3-oxomorpholin-2-yl)acetic acid] | 1500 |
| O=C(O)C[C@H]1O[C@H](c2cccc(Cl)c2)[C@@H](c2ccc(OC(F)(F)F)cc2)N(CC2CC2)C1=O [Example 65, 2-((2R,5R,6R)-6-(3-Chlorophenyl)-4-(cyclopropylmethyl)-3-oxo-5-(4-(trifluoromethoxy)phenyl)morpholin-2-yl)acetic acid] | 1100 |
| CC(C)c1ccc([C@@H]2[C@@H](c3cccc(Cl)c3)O[C@H](CC(=O)O)C(=O)N2CC2CC2)cc1 [Example 66, 2-((2R,5R,6R)-6-(3-Chlorophenyl)-4-(cyclopropylmethyl)-5-(4-isopropylphenyl)-3-oxomorpholin-2-yl)acetic acid] | 13500 |

Second part, the compound after the results:

| IC50 [nM] | Structure (SMILES) |
| --- | --- |
| 500 | O=C(O)C[C@H]1O[C@H](c2cccc(Cl)c2)[C@@H](c2ccc(Cl)cc2)N(CC2CCCC2)C1=O [Example 28, 2-((2R,5R,6R)-6-(3-Chlorophenyl)-5-(4-chlorophenyl)-4-(cyclopentylmethyl)-3-oxomorpholin-2-yl)acetic acid] |
| 300 | O=C(O)C[C@@H]1O[C@H](c2cccc(Cl)c2)[C@@H](c2ccc(Cl)cc2)N(CC2CCCC2)C1=O [Example 29, 2-((2S,5R,6R)-6-(3-Chlorophenyl)-5-(4-chlorophenyl)-4-(cyclopentylmethyl)-3-oxomorpholin-2-yl)acetic acid] |
| 25000 | O=C(O)C[C@@H]1O[C@H](c2cccc(Cl)c2)[C@@H](c2ccc(Cl)cc2)NC1=O [Example 34, 2-((2S,5R,6R)-6-(3-Chlorophenyl)-5-(4-chlorophenyl)-3-oxomorpholin-2-yl)acetic acid] |
| 13000 | O=C(O)C[C@H]1O[C@H](c2cccc(Cl)c2)[C@@H](c2ccc(Cl)cc2)NC1=O [Example 35, 2-((2R,5R,6R)-6-(3-Chlorophenyl)-5-(4-chlorophenyl)-3-oxomorpholin-2-yl)acetic acid] |
| 700 | CCCCN1C(=O)[C@H](CC(=O)O)O[C@H](c2cccc(Cl)c2)[C@H]1c1ccc(Cl)cc1 [Example 40, 2-((2S,5R,6R)-4-Butyl-6-(3-chlorophenyl)-5-(4-chlorophenyl)-3-oxomorpholin-2-yl)acetic acid] |
| 1100 | O=C(O)C[C@@H]1O[C@H](c2cccc(Cl)c2)[C@@H](c2ccc(Cl)cc2)N(Cc2ncco2)C1=O [Example 43, 2-((2S,5R,6R)-6-(3-Chlorophenyl)-5-(4-chlorophenyl)-4-(oxazol-2-ylmethyl)-3-oxomorpholin-2-yl)acetic acid] |
| 900 | CCN1C(=O)[C@@H](CC(=O)O)O[C@H](c2cccc(Cl)c2)[C@H]1c1ccc(Cl)cc1 [Example 44, 2-((2R,5R,6R)-6-(3-Chlorophenyl)-5-(4-chlorophenyl)-4-ethyl-3-oxomorpholin-2-yl)acetic acid] |
| 800 | CCN1C(=O)[C@H](CC(=O)O)O[C@H](c2cccc(Cl)c2)[C@H]1c1ccc(Cl)cc1 [Example 45, 2-((2S,5R,6R)-6-(3-Chlorophenyl)-5-(4-chlorophenyl)-4-ethyl-3-oxomorpholin-2-yl)acetic acid] |
| 800 | C=CCN1C(=O)[C@@H](CC(=O)O)O[C@H](c2cccc(Cl)c2)[C@H]1c1ccc(Cl)cc1 [Example 46, 2-((2R,5R,6R)-4-Allyl-6-(3-chlorophenyl)-5-(4-chlorophenyl)-3-oxomorpholin-2-yl)acetic acid] |
| 800 | C=CCN1C(=O)[C@H](CC(=O)O)O[C@H](c2cccc(Cl)c2)[C@H]1c1ccc(Cl)cc1 [Example 47, 2-((2S,5R,6R)-4-Allyl-6-(3-chlorophenyl)-5-(4-chlorophenyl)-3-oxomorpholin-2-yl)acetic acid] |
| 500 | CCCN1C(=O)[C@@H](CC(=O)O)O[C@H](c2cccc(Cl)c2)[C@H]1c1ccc(Cl)cc1 [Example 48, 2-((2R,5R,6R)-6-(3-Chlorophenyl)-5-(4-chlorophenyl)-3-oxo-4-propylmorpholin-2-yl)acetic acid] |
| 600 | CCCN1C(=O)[C@H](CC(=O)O)O[C@H](c2cccc(Cl)c2)[C@H]1c1ccc(Cl)cc1 [Example 49, 2-((2S,5R,6R)-6-(3-Chlorophenyl)-5-(4-chlorophenyl)-3-oxo-4-propylmorpholin-2-yl)acetic acid] |
| 100 | CCC(CC)N1C(=O)[C@H](CC(=O)O)O[C@H](c2cccc(Cl)c2)[C@H]1c1ccc(Cl)cc1 [Example 53, 2-((2S,5R,6R)-6-(3-Chlorophenyl)-5-(4-chlorophenyl)-3-oxo-4-(pentan-3-yl)morpholin-2-yl)acetic acid] |
